Measurements as given in US7109193B2, “Tricyclic diazepines tocolytic oxytocin receptor antagonists” (Wyeth, priority 2001, dated 2006).

Target: T1, human vasopressin V1a receptor subtype (Homo sapiens, UniProt P37288)
T1 construct: host or cells: CHO cells (pZeoSV vector for the Thibonnier line)
Assay: Vasopressin binding in Chinese Hamster Ovary cell membranes expressing human vasopressin V1a subtype receptors
Conditions: 100 nM, CHO cell membranes, [3H]Manning ligand, values without parentheses
Procedure, shortened: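 Membranes from CHO cells expressing human V1a receptor were incubated with [3H]Manning ligand (added as 20 μL of 8 nM) in pH 7.4 Tris buffer with MgCl2, BSA and protease inhibitors, 60 min at room temperature. Bound radioactivity was counted after filtration; values are percent inhibition at a stated concentration or IC50.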

T1 sequence (P37288 whole entry): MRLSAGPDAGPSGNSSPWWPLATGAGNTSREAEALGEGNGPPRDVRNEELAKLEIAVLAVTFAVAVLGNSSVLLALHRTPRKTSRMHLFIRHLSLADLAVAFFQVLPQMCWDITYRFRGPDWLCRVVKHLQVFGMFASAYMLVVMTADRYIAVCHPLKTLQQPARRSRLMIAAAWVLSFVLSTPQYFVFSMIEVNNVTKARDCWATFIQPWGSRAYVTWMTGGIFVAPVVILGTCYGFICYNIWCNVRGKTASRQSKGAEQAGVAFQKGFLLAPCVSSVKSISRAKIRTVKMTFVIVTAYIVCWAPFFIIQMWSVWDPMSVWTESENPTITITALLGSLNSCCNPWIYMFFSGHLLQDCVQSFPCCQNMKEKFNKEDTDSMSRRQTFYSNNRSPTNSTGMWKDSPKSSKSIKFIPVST

Row | Compound | inhibition at 0.1 µM [%]
1 | COc1cccc(-c2cc(OC)c(C(=O)N3Cc4ccc(C(=O)NCCC5CCCN5C)n4Cc4ccccc43)cc2Cl)c1 (stereo not shown) [Example 169, 10-[(6-Chloro-3,3′-dimethoxy[1,1′-biphenyl]-4-yl)carbonyl]-N-[2-(1-methyl-2-pyrrolidinyl)ethyl]-10,11-dihydro-5H-pyrrolo[2,1-c][1,4]benzodiazepine-3-carboxamide] | 9
2 | COc1cc(-c2ccccc2C)c(Cl)cc1C(=O)N1Cc2ccc(C(=O)N3CCN(CCN4CCOCC4)CC3)n2Cc2ccccc21 [Example 217, {10-[(6-Chloro-3-methoxy-2′-methyl[1,1′-biphenyl]-4-yl)carbonyl]-10,11-dihydro-5H -pyrrolo[2,1-c][1,4]benzodiazepin-3-yl}{4-[2-(4-morpholinyl)ethyl]-1-piperazinyl}methanone] | 21
3 | COc1ccccc1-c1ccc(C(=O)N2Cc3ccc(C(=O)N(C)C4CCN(C)C4)n3Cc3ccccc32)cc1 (stereo not shown) [Example 187, 10-[(2′-Methoxy[1,1′-biphenyl]-4-yl)carbonyl]-N-methyl-N-(1-methyl-3-pyrrolidinyl)-10,11-dihydro-5H-pyrrolo[2,1-c][1,4]benzodiazepine-3-carboxamide] | 81
4 | COc1cc(C(=O)N2Cc3ccc(C(=O)N4CCN(CCN5CCOCC5)CC4)n3Cc3ccccc32)ccc1-c1cccc2ccccc12 [Example 213, {10-[3-Methoxy-4-(1-naphthyl)benzoyl]-10,11-dihydro-5H-pyrrolo[2,1-c][1,4]benzodiazepin-3-yl}{4-[2-(4-morpholinyl)ethyl]-1-piperazinyl}methanone] | 12
5 | COc1ccccc1-c1ccc(C(=O)N2Cc3ccc(C(=O)N(C)C4CCN(C)CC4)n3Cc3ccccc32)cc1C [Example 175, 10-[(2′-Methoxy-2-methyl[1,1′-biphenyl]-4-yl)carbonyl]-N-methyl-N-(1-methyl-4-piperidinyl)-10,11-dihydro-5H-pyrrolo[2,1-c][1,4]benzodiazepine-3-carboxamide] | 28
6 | COc1ccccc1-c1ccc(C(=O)N2Cc3ccc(C(=O)N(C)C4CCN(C)C4)n3Cc3ccccc32)cc1C (stereo not shown) [Example 185, 10-[(2′-Methoxy-2-methyl[1,1′-biphenyl]-4-yl)carbonyl]-N-methyl-N-(1-methyl-3-pyrrolidinyl)-10,11-dihydro-5H-pyrrolo[2,1-c][1,4]benzodiazepine-3-carboxamide] | 37
7 | COc1cc(C(=O)N2Cc3ccc(C(=O)N4CCN(CCN(C)C)CC4)n3Cc3ccccc32)ccc1-c1ccccc1C [Example 201, {4-[2-(Dimethylamino)ethyl]-1-piperazinyl}{10-[(2-methoxy-2′-methyl[1,1′-biphenyl]-4-yl)carbonyl]-10,11-dihydro-5H-pyrrolo[2,1-c][1,4]benzodiazepin-3-yl}methanone] | 43
8 | COc1cc(C(=O)N2Cc3ccc(C(=O)N(C)C4CCN(C)CC4)n3Cc3ccccc32)ccc1-c1ccccc1C [Example 179, 10-[(2-Methoxy-2′-methyl[1,1′-biphenyl]-4-yl)carbonyl]-N-methyl-N-(1-methyl-4-piperidinyl)-10,11-dihydro-5H-pyrrolo[2,1-c][1,4]benzodiazepine-3-carboxamide] | 73
9 | COc1ccccc1-c1ccc(C(=O)N2Cc3ccc(C(=O)N4CCN(C(C)C)CC4)n3Cc3ccccc32)cc1OC [Example 241, {10-[(2,2′-Dimethoxy[1,1-biphenyl]4-yl)carbonyl]-10,11-dihydro-5H-pyrrolo[2,1-c][1,4]benzodiazepin-3-yl}(4-isopropyl-1-piperazinyl)methanone] | -4
10 | COc1cccc(-c2cc(OC)c(C(=O)N3Cc4ccc(C(=O)N(C)C5CCN(C)CC5)n4Cc4ccccc43)cc2Cl)c1 [Example 181, 10-[(6-Chloro-3,3′-dimethoxy[1,1′-biphenyl]-4-yl)carbonyl]-N-methyl-N-(1-methyl4-piperidinyl)-10,11-dihydro-5H-pyrrolo[2,1-c][1,4]benzodiazepine-3-carboxamide] | 23

Second part, the molecule after the results:

Row | inhibition at 0.1 µM [%] | Compound
11 | 42 | COc1ccccc1-c1ccc(C(=O)N2Cc3ccc(C(=O)N(C)C4CCN(C)CC4)n3Cc3ccccc32)cc1 [Example 177, 10-[(2′-Methoxy[1,1′-biphenyl]-4-yl)carbonyl]-N-methyl-N-(1-methyl-4-piperidinyl)-10,11-dihydro-5H-pyrrolo[2,1-c][1,4]benzodiazepine-3-carboxamide]
12 | 50 | Cc1ccccc1-c1ccc(C(=O)N2Cc3ccc(C(=O)N4CCN(CCN(C)C)CC4)n3Cc3ccccc32)cc1C [Example 198, {4-[2-(Dimethylamino)ethyl]-1-piperazinyl}{10-[(2,2′-dimethyl[1,1′-biphenyl]-4-yl)carbonyl]-10,11-dihydro-5H-pyrrolo[2,1-c][1,4]benzodiazepin-3-yl}methanone]
13 | 16 | COc1ccccc1-c1ccc(C(=O)N2Cc3ccc(C(=O)N4CCN(CCN(C)C)CC4)n3Cc3ccccc32)cc1OC [Example 204, {10-[(2,2′-Dimethoxy[1,1′-biphenyl]-4-yl)carbonyl]-10,11-dihydro-5H-pyrrolo[2,1-c][1,4]benzodiazepin-3-yl}{4-[2-(dimethylamino)ethyl]-1-piperazinyl}methanone]
14 | 50 | COc1cc(C(=O)N2Cc3ccc(C(=O)NCCC4CCCN4C)n3Cc3ccccc32)ccc1-c1ccccc1C (stereo not shown) [Example 167, 10-[(2-Methoxy-2′-methyl[1,1′-biphenyl]-4-yl)carbonyl]-N-[2-(1-methyl-2-pyrrolidinyl)ethyl]-10,11-dihydro-5H-pyrrolo[2,1-c][1,4]benzodiazepine-3-carboxamide]
15 | 1 | C=CCN1CCN(C(=O)c2ccc3n2Cc2ccccc2N(C(=O)c2ccc(-c4ccccc4C)cc2)C3)CC1 [Example 224, (4-Allyl-1-piperazinyl){10-[(2′-methyl[1,1′-biphenyl]-4-yl)carbonyl]-10,11-dihydro-5H -pyrrolo[2,1-c][1,4]benzodiazepin-3-yl}methanone]
16 | 33 | COc1cccc(-c2ccc(C(=O)N3Cc4ccc(C(=O)N5CCN(C(C)C)CC5)n4Cc4ccccc43)cc2OC)c1 [Example 242, {10-[(2,3′-Dimethoxy[1,1′-biphenyl]-4-yl)carbonyl]-10,11-dihydro-5H-pyrrolo[2,1-c][1,4]benzodiazepin-3-yl}(4-isopropyl-1-piperazinyl)methanone]
17 | 64 | Cc1ccccc1-c1ccc(C(=O)N2Cc3ccc(C(=O)N4CCN(CCN5CCOCC5)CC4)n3Cc3ccccc32)cc1 [Example 209, {10-[(2′-Methyl[1,1′-biphenyl]-4-yl)carbonyl]-10,11-dihydro-5H-pyrrolo[2,1-c][1,4]benzodiazepin-3-yl}{4-[2-(4-morpholinyl)ethyl]-1-piperazinyl}methanone]
18 | 26 | COc1cc(-c2ccccc2C)c(Cl)cc1C(=O)N1Cc2ccc(C(=O)N(C)C3CCN(C)CC3)n2Cc2ccccc21 [Example 180, 10-[(6-Chloro-3-methoxy-2′-methyl[1,1′-biphenyl]-4-yl)carbonyl]-N-methyl-N-(1-methyl-4-piperidinyl)-10,11-dihydro-5H-pyrrolo[2,1-c][1,4]benzodiazepine-3-carboxamide]
19 | 2 | Cc1cc(C(=O)N2Cc3ccc(C(=O)N4CCN(C(=O)OC(C)(C)C)CC4)n3Cc3ccccc32)ccc1-c1ccccc1C(F)(F)F [Example 6, 4-[[10,11-Dihydro-10-[[2-methyl-2′-trifluoromethyl[1,1′-biphenyl]-4-yl]carbonyl]-5H-pyrrolo[2,1-c][1,4]benzodiazepin-3-yl]carbonyl]-1-piperazine-carboxylic acid, tert-butyl ester]
20 | 31 | Cc1ccccc1-c1ccc(C(=O)N2Cc3ccc(C(=O)N4CCN(C(C)C)CC4)n3Cc3ccccc32)cc1C [Example 233, {10-[(2,2′-Dimethyl[1,1′-biphenyl]-4-yl)carbonyl]-10,11-dihydro-5H-pyrrolo[2,1-c][1,4]benzodiazepin-3-yl}(4-isopropyl-1-piperazinyl)methanone]
21 | 39 | COc1cc(C(=O)N2Cc3ccc(C(=O)N4CCN(C(C)C)CC4)n3Cc3ccccc32)ccc1-c1ccccc1C [Example 237, (4-isopropyl-1-piperazinyl){10-[(2-methoxy-2′-methyl[1,1′-biphenyl]-4-yl)carbonyl]-10,11-dihydro-5H-pyrrolo[2,1-c][1,4]benzodiazepin-3-yl}methanone]
22 | 0 | CN1CCCC1CCNC(=O)c1ccc2n1Cc1ccccc1N(C(=O)c1ccc(-c3cccc4ccccc34)cc1Cl)C2 (stereo not shown) [Example 173, 10-[2-Chloro-4-(1-naphthyl)benzoyl]-N-[2-(1-methyl-2-pyrrolidinyl)ethyl]-10,11-dihydro-5H-pyrrolo[2,1-c][1,4]benzodiazepine-3-carboxamide]
23 | 22 | C=CCN1CCN(C(=O)c2ccc3n2Cc2ccccc2N(C(=O)c2ccc(-c4cccc(OC)c4)c(OC)c2)C3)CC1 [Example 228, (4-Allyl-1-piperazinyl){10-[(2,3′-dimethoxy[1,1′-biphenyl]-4-yl)carbonyl]-10,11-dihydro-5H -pyrrolo[2,1-c][1,4]benzodiazepin-3-yl}methanone]
24 | 16 | COc1ccccc1-c1ccc(C(=O)N2Cc3ccc(C(=O)NCCN4CCCCC4)n3Cc3ccccc32)cc1OC [Example 158, 10-[(2,2′-Dimethoxy[1,1′-biphenyl]-4-yl)carbonyl]-N-[2-(1-piperidinyl)ethyl]-10,11-dihydro-5H-pyrrolo[2,1-c][1,4]benzodiazepine-3-carboxamide]
25 | 3 | C=CCN1CCN(C(=O)c2ccc3n2Cc2ccccc2N(C(=O)c2cc(Cl)c(-c4cccc(OC)c4)cc2OC)C3)CC1 [Example 226, (4-Allyl-1-piperazinyl){10-[(6-chloro-3,3′-dimethoxy[1,1′-biphenyl]-4-yl)carbonyl]-10,11-dihydro-5H-pyrrolo[2,1-c][1,4]benzodiazepin-3-yl}methanone]
